Measurements taken from PMC7481839, “Switchable foldamer ion channels with antibacterial activity” (Chemical Science, 2020).
≈ marks a conversion by molar mass, not a printed value. Where a SMILES comes first, the peptide text is derived from it.

Key:
Solubility = format: physicochemical; conditions: under the haemolysis assay conditions (blood diluted with PBS, compound added from DMSO)
Description: Mixing 1 or 2 with CuCl2 or CuCl provided green or blue complexes respectively. […] The blue complexes from the addition of CuCl gave very broad NMR spectra even after preparing fresh samples, which was ascribed to in situ oxidation of Cu(I); Cu(I)(TPA) complexes are very efficient one electron donors and will rapidly reduce alkyl halides[27] and oxygen.[28] Furthermore these blue products gave green solids when dried (see the ESI, Fig. S2 ^†).
Although alamethicin is a very active channel former, its use in the clinic is hampered by its high haemolytic activity.[52] […] It is known that the haemolytic activity of amphipathic peptides, including alamethicin, decreases substantially on a reduction of peptide hydrophobicity and hydrophobic moment.[56]

[1] = HPTS assay of ionophoric activity in phospholipid vesicles; format: biochemical; conditions: Table S1, HPTS assay
Procedure: The membrane activity of 1, 2, Cu[1]Cl2 and Cu[2]Cl2 was assessed in phospholipid vesicle membranes using 8-hydroxypyrene-1,3,6-trisulfonate (HPTS) assays. HPTS assays can show ionophoric activity that occurs via any combination of M^+/H^+ antiport, X^–/OH^– antiport, M^+/OH^– symport and X^–/H^+ symport.
The HPTS assays of 1, 2, Cu[1]Cl2 and Cu[2]Cl2 used 1 : 4 cholesterol : egg yolk phosphatidylcholine (EYPC) vesicles in MOPS buffer (pH 7.4) with 100 mM of an appropriate salt (e.g. KCl, KBr, NaCl), following previously reported procedures.[16] The resulting normalised data were fitted to pseudo first-order rate equations as an approximation (see the ESI ^†).[32] Although the change in fluorescence after the “burst phase” is likely to arise from multiple processes, including inter-vesicle transfer of foldamers,[33] this fitting allows the relative effectiveness of each compound to be compared.
CuCl2 was added at 2 min, followed by addition of 2.2 eq. EDTA at 3 min.
5.1 Preparation of large unilamellar vesicles for HPTS assays
The HPTS assays of 1, 2, Cu[1]Cl2 and Cu[2]Cl2 used 1:4 cholesterol:egg yolk phosphatidylcholine (EYPC) vesicles in MOPS buffer (pH 7.4) with 100 mM of an appropriate salt (e.g. KCl, KBr, NaCl).5 Aliquots of 1, 2, Cu[1]Cl2 or Cu[2]Cl2 dissolved in methanol were mixed with the vesicle suspensions for 60 s before adding a base pulse to change the external pH to 8.4.6 The resulting change in HPTS fluorescence was followed for 6 min, then Triton X-100 was added at 7 min to lyse the vesicles […]. Each assay was repeated three times on new vesicles. The resulting normalized data were fitted to pseudo first-order rate equations as an approximation (see the ESI), similar to the procedure of Regen and co-workers.7 Although the change in fluorescence after the “burst phase” is likely to arise from multiple processes, including inter-vesicle transfer of foldamers,8 this fitting allows the relative effectiveness of each compound to be compared.
Egg yolk phosphatidylcholine (EYPC, 64 μmol) and cholesterol (16 μmol) were dissolved in 2 mL chloroform (spectroscopic grade). The solvent was removed under reduced pressure resulting in a thin film of lipid on the inside wall of the round bottom flask, which was dried further under vacuum for 2 hours. 1.2 mL of a trisodium 8-hydroxypyrene-1,3,6-trisulfonate (HPTS, 100 mM, pH = 7.4) dye in (3-(N-morpholino) propanesulfonic acid) buffer (20 mM MOPS, 100 mM MX (M = K or Na, X = Cl, Br or NO3− adjusted to pH 7.4 using NaOH) were added to the lipid film. Afterwards, the thin film was detached from the sides of the flask by vortex mixing. The resulting lipid suspension was then extruded 19 times through an 800 nm polycarbonate membrane in an Avestin Liposofast extruder to give a suspension of 800 nm large unilamellar vesicles. Unencapsulated HPTS dye was removed by gel permeation chromatography on PD-10 SEC columns (Sephadex G-25). Hereby 1 mL of the 800 nm vesicle suspension was diluted to 2.5 mL with 20 mM MOPS buffer solution and loaded onto the GPC column. The suspension run onto the column, followed by 3.5 mL of 20 mM MOPS buffer, which were collected, giving a stock vesicle solution of 3.5 mL (final concentration of lipids = 15.23 mM). This solution of vesicles was used directly in the HPTS experiments.
5.2 Procedure for HPTS assays
100 μL of the vesicle stock solution was diluted to 2 mL with 20 mM MOPS buffer (final lipid concentration in cuvette 0.762 mM). To this vesicle suspension was then added 20 μL of the principle compound in methanol (1 mM or 0.6 mM for Cu[2]Cl2) and the cuvette was equipped with a stirrer bar. The cuvette was […]

SMILES: CC(C)(NC(=O)C(C)(C)NC(=O)C(C)(C)NC(=O)C(C)(C)NC(=O)C(C)(C)n1cc(CN(Cc2ccccn2)Cc2ccccn2)nn1)C(=O)NC(C)(C)C(=O)NC(C)(C)C(=O)NC(C)(C)C(=O)OCC[Si](C)(C)C [foldamer 2] (HELM PEPTIDE1{[CC(C)(C(=O)[*:2])n1cc(CN(Cc2ccccn2)Cc2ccccn2)nn1].[Aib].[Aib].[Aib].[Aib].[Aib].[Aib].[Aib].[C[Si](C)(C)CCO[*:1]]}$$$$V2.0)
- solubility limit (Solubility): 20 µM (≈ 21.2 µg/mL)
- Apparent observed rate constant kobs, KBr ([1]; 100 mM KBr, compound 10 µM): 4.0 10−3 s−1
- Apparent observed rate constant kobs, KCl ([1]; 100 mM KCl, compound 10 µM): 3.3 10−3 s−1
- Apparent observed rate constant kobs, KNO3 ([1]; 100 mM KNO3, compound 10 µM): 3.2 10−3 s−1
- Apparent observed rate constant kobs, NaCl ([1]; 100 mM NaCl, compound 10 µM, methanol control 1 × 10−3 s−1): 4.6 10−3 s−1
